Test results as given in US4202968A, “New tunicamine derivatives and their preparation” (Meiji Seika Kaisha, Ltd., priority 1977, dated 1980).

Legend:
Eimeria tenella = experiment: Inhibitory activity against coccidiosis in chicks orally inoculated with Eimeria tenella oocysts; assay type: in vivo, chicks (domestic fowls) infected with Eimeria tenella; set-up: key to Presence of hemaferia: -: Not existing; ±: Something like hemaferia is likely to exist; +: A little hemaferia exists; ++: Distinct hemaferiae exist in places; +++: Distinct hemaferiae exist almost over the whole; ++++: The whole are hemaferiae
Method: Inhibitory activity of tunicamine derivative C against coccidiosis was tested in the following manner. Primary chicks newly-hatched out were raised with a standard assorted feed for chicks containing no tunicamine derivative C for the first 7 days and on and after the 8th day with the same feed as above but containing a 100 ppm or 200 ppm concentration of tunicamine derivative C. On the 8th day from the hatch the body weight of the chicks was taken and they were divided into test groups of five chicks per group so as to balance the weight distribution for respective groups. On the 9th day, each chick was orally inoculated with 5.0×10^4 matured oocysts of Eimeria tenella. Assessment was made by observation and determination of the presence of […] on the 4, 5, 6, 7 and 8 from day inoculation; percent of survivals on the 8th day and the extend of symptoms on the 8th day from the inoculation were then evaluated.

[1] = tested on: genera Bacillus, Candida, Microbacterium; settings: cited from earlier work
[2] = tested on: Newcastle disease virus (NDV), influenza virus and tobacco-mosaic virus; settings: cited from earlier work
[3] = 100 ppm in feed, 8th day from inoculation
[4] = 200 ppm in feed, 8th day from inoculation

With `NC1C(O)OC(CC(O)C2OC(n3ccc(=O)[nH]c3=O)C(O)C2O)C(O)C1O` (stereo not shown) [tunicamine derivative C] the “Relative increase in body weight” value (Eimeria tenella; 100 ppm in feed) was 96%, the Presence of hemaferia (Eimeria tenella; 100 ppm in feed, 4th day from inoculation) was “-” and the Presence of hemaferia (Eimeria tenella; 100 ppm in feed, 5th day from inoculation) was “-”. The Presence of hemaferia (Eimeria tenella; 100 ppm in feed, 6th day from inoculation) was “±”, the Presence of hemaferia (Eimeria tenella; 100 ppm in feed, 7th day from inoculation) was “±” and the Percent of survivals (Eimeria tenella; [3]) was 100%. The Presence of hemaferia (Eimeria tenella; [3]) was “+”, the “Relative increase in body weight” value (Eimeria tenella; 200 ppm in feed) was 102% and the Presence of hemaferia (Eimeria tenella; 200 ppm in feed, 4th day from inoculation) was “-”. The Presence of hemaferia (Eimeria tenella; 200 ppm in feed, 5th day from inoculation) was “-”, the Presence of hemaferia (Eimeria tenella; 200 ppm in feed, 6th day from inoculation) was “-” and the Presence of hemaferia (Eimeria tenella; 200 ppm in feed, 7th day from inoculation) was “-”. The Percent of survivals (Eimeria tenella; [4]) was 100% and the Presence of hemaferia (Eimeria tenella; [4]) was “-”.
In the case of tunicamycin, the antibacterial activity [1] is listed as “high” and the antiviral activity [2] is listed as “high”.
